± gives the expanded uncertainty stated by the source.
Assays:
[1] = xn = mol fraction of the nth substance listed; settings: 298.15 K, 101 kPa, Liquid, Vibrating tube method
[2] = excess molar enthalpy (molar enthalpy of mixing); xn = mol fraction of the nth substance listed; settings: 298.15 K, 101 kPa, Liquid, Calvet calorimetry

CCCCOC(=O)CCC [butyl butanoate] + BrCCCCCBr gave a mass density ([1]; x1 = 0.0517) of 1642.59 ± 0.82 kg/m3, a mass density ([1]; x1 = 0.1033) of 1591.9 ± 0.77 kg/m3 and a mass density ([1]; x1 = 0.1521) of 1545.03 ± 0.72 kg/m3. It also gave a mass density ([1]; x1 = 0.2029) of 1497.33 ± 0.68 kg/m3, a mass density ([1]; x1 = 0.2545) of 1449.85 ± 0.63 kg/m3 and a mass density ([1]; x1 = 0.3101) of 1399.96 ± 0.58 kg/m3. For the same compound, the mass density ([1]; x1 = 0.3663) was 1350.58 ± 0.54 kg/m3, the mass density ([1]; x1 = 0.4214) was 1303.32 ± 0.49 kg/m3 and the mass density ([1]; x1 = 0.478) was 1255.87 ± 0.45 kg/m3. For the same compound, the mass density ([1]; x1 = 0.6053) was 1153.05 ± 0.36 kg/m3, the mass density ([1]; x1 = 0.6591) was 1111.13 ± 0.33 kg/m3 and the mass density ([1]; x1 = 0.7254) was 1060.71 ± 0.29 kg/m3. The mass density ([1]; x1 = 0.7885) was 1013.92 ± 0.25 kg/m3, the mass density ([1]; x1 = 0.8577) was 963.85 ± 0.24 kg/m3 and the mass density ([1]; x1 = 0.9262) was 915.51 ± 0.24 kg/m3. For the same compound, the excess molar enthalpy ([2]; x1 = 0.0642) was 0.00645 ± 0.000239 kcal/mol, the excess molar enthalpy ([2]; x1 = 0.1447) was 0.0108 ± 0.000239 kcal/mol and the excess molar enthalpy ([2]; x1 = 0.2305) was 0.012 ± 0.000478 kcal/mol. It also gave an excess molar enthalpy ([2]; x1 = 0.3193) of 0.00956 ± 0.000239 kcal/mol, an excess molar enthalpy ([2]; x1 = 0.3711) of 0.00621 ± 0.000239 kcal/mol and an excess molar enthalpy ([2]; x1 = 0.3957) of 0.0043 ± 0.000239 kcal/mol. It also gave an excess molar enthalpy ([2]; x1 = 0.4159) of 0.000956 ± 0.000239 kcal/mol, an excess molar enthalpy ([2]; x1 = 0.4621) of -0.00359 ± 0.000239 kcal/mol and an excess molar enthalpy ([2]; x1 = 0.4668) of -0.00478 ± 0.000239 kcal/mol. The excess molar enthalpy ([2]; x1 = 0.5278) was -0.00932 ± 0.000239 kcal/mol, the excess molar enthalpy ([2]; x1 = 0.6041) was -0.0115 ± 0.000478 kcal/mol and the excess molar enthalpy ([2]; x1 = 0.6965) was -0.0129 ± 0.000478 kcal/mol. The excess molar enthalpy ([2]; x1 = 0.806) was -0.0115 ± 0.000478 kcal/mol and the excess molar enthalpy ([2]; x1 = 0.9138) was -0.00693 ± 0.000239 kcal/mol.
Work on CCCCOC(=O)CCC [butyl butanoate] + BrCCCCCCBr yielded a mass density ([1]; x1 = 0.0615) of 1551.3 ± 0.73 kg/m3, a mass density ([1]; x1 = 0.114) of 1509.95 ± 0.69 kg/m3 and a mass density ([1]; x1 = 0.1733) of 1463.7 ± 0.64 kg/m3. It also gave a mass density ([1]; x1 = 0.2207) of 1427.05 ± 0.61 kg/m3, a mass density ([1]; x1 = 0.2782) of 1383.1 ± 0.56 kg/m3 and a mass density ([1]; x1 = 0.3299) of 1343.86 ± 0.53 kg/m3. For the same compound, the mass density ([1]; x1 = 0.3955) was 1294.64 ± 0.48 kg/m3, the mass density ([1]; x1 = 0.4505) was 1253.75 ± 0.45 kg/m3 and the mass density ([1]; x1 = 0.5089) was 1210.69 ± 0.41 kg/m3. The mass density ([1]; x1 = 0.5674) was 1168 ± 0.37 kg/m3, the mass density ([1]; x1 = 0.6293) was 1123.3 ± 0.34 kg/m3 and the mass density ([1]; x1 = 0.68) was 1087.08 ± 0.31 kg/m3. It also gave a mass density ([1]; x1 = 0.7477) of 1039.01 ± 0.27 kg/m3, a mass density ([1]; x1 = 0.8082) of 996.64 ± 0.24 kg/m3 and a mass density ([1]; x1 = 0.8735) of 951.23 ± 0.24 kg/m3. For the same compound, the mass density ([1]; x1 = 0.9358) was 908.5 ± 0.24 kg/m3, the excess molar enthalpy ([2]; x1 = 0.0751) was 0.00502 ± 0.000239 kcal/mol and the excess molar enthalpy ([2]; x1 = 0.1669) was 0.00693 ± 0.000239 kcal/mol. It also gave an excess molar enthalpy ([2]; x1 = 0.2609) of 0.00669 ± 0.000239 kcal/mol, an excess molar enthalpy ([2]; x1 = 0.3471) of 0.00454 ± 0.000239 kcal/mol and an excess molar enthalpy ([2]; x1 = 0.418) of 0.000478 ± 0.000239 kcal/mol. It also gave an excess molar enthalpy ([2]; x1 = 0.4834) of -0.00406 ± 0.000239 kcal/mol, an excess molar enthalpy ([2]; x1 = 0.5223) of -0.00789 ± 0.000239 kcal/mol and an excess molar enthalpy ([2]; x1 = 0.5361) of -0.0086 ± 0.000239 kcal/mol. For the same compound, the excess molar enthalpy ([2]; x1 = 0.5892) was -0.0105 ± 0.000239 kcal/mol, the excess molar enthalpy ([2]; x1 = 0.6544) was -0.0115 ± 0.000478 kcal/mol and the excess molar enthalpy ([2]; x1 = 0.7475) was -0.0115 ± 0.000478 kcal/mol. For the same compound, the excess molar enthalpy ([2]; x1 = 0.8287) was -0.00956 ± 0.000239 kcal/mol and the excess molar enthalpy ([2]; x1 = 0.9253) was -0.00502 ± 0.000239 kcal/mol.

From the NIST ThermoML archive (doi:10.1016/j.jct.2009.05.006)
